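The compound was tested at five concentrations on cells cultured in 96-well plates, with a 48-hour exposure period. The concentration for full growth arrest is given as TGI.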
How the values were obtained:
Assay in all cases: NCI tumour cell line growth inhibition, 48 h
SK-MEL-5 melanoma = system: SK-MEL-5 melanoma
SF-268 CNS = system: SF-268 CNS
HOP-62 NSCLC = system: HOP-62 NSCLC
DU-145 prostate = system: DU-145 prostate
M14 melanoma = system: M14 melanoma
SN12C renal = system: SN12C renal
OVCAR-3 ovarian = system: OVCAR-3 ovarian
CCRF-CEM leukemia = system: CCRF-CEM leukemia
HL-60(TB) leukemia = system: HL-60(TB) leukemia
RXF 393 renal = system: RXF 393 renal
HOP-92 NSCLC = system: HOP-92 NSCLC
MOLT-4 leukemia = system: MOLT-4 leukemia
OVCAR-5 ovarian = system: OVCAR-5 ovarian
NCI-H226 lung = system: NCI-H226 lung
ACHN renal = system: ACHN renal
SF-295 CNS = system: SF-295 CNS
K-562 leukemia = system: K-562 leukemia
NCI-H460 lung = system: NCI-H460 lung
MALME-3M melanoma = system: MALME-3M melanoma
786-0 renal = system: 786-0 renal

Row | SMILES | TGI (SK-MEL-5 melanoma) [µM] | TGI (SF-268 CNS) [µM] | TGI (HOP-62 NSCLC) [µM] | TGI (DU-145 prostate) [µM] | TGI (M14 melanoma) [µM] | TGI (SN12C renal) [µM] | TGI (OVCAR-3 ovarian) [µM] | TGI (CCRF-CEM leukemia) [µM] | TGI (HL-60(TB) leukemia) [µM] | TGI (RXF 393 renal) [µM] | TGI (HOP-92 NSCLC) [µM] | TGI (MOLT-4 leukemia) [µM] | TGI (OVCAR-5 ovarian) [µM] | TGI (NCI-H226 lung) [µM] | TGI (ACHN renal) [µM] | TGI (SF-295 CNS) [µM] | TGI (K-562 leukemia) [µM] | TGI (NCI-H460 lung) [µM] | TGI (MALME-3M melanoma) [µM] | TGI (786-0 renal) [µM]
1 | CC(C)(C)c1cc(C(C)(C)C)c2sc(=S)oc2c1O | 21.8 | 19.8 | 31.1 | 25.5 | 32.4 | 19.7 | 17.5 | > 27 | 33 | 14.5 | 28.9 | > 40.8 | 20.2 | 34.2 | 20.8 | 23.5 | 32.9 | 18.2 | 32.1 | 22.6
2 | CCCCOc1ccc(S(=O)(=O)/N=C(\NN)Nc2ccc(Cl)cc2)cc1 | > 100 | 33 | 38.5 | 31.1 | 56.9 | 38.6 | 46.8 | 47.6 | > 100 | 36.2 | 67.2 | > 100 | 52.9 | > 100 | > 100 | 67.7 | > 100 | 31.9 | 86.3 | 31
3 | CC1OC(OC2C(O[C@@H]3C[C@@H]4CC[C@@H]5[C@H](CC[C@]6(C)[C@@H]7[C@H](C[C@@H]56)O[C@]5(CC[C@@H](C)CO5)[C@H]7C)[C@@]4(C)C[C@H]3O)OC(CO)C(OC3OC(CO)C(O)C(O)C3O)C2O)C(O)C(O)C1O (stereo not given in full) | 2.89 | 3.51 | 3.22 | 4.29 | 3.07 | 3.05 | 3.04 | 3.72 | 3.83 | 3.53 | 5.16 | 3.67 | 3.12 | 3.25 | 3.18 | 2.92 | 58.1 | 4.14 | 2.57 | 3.32
4 | Cc1cc(=O)oc2c(CNC(C(=O)O)C(C)O)c(O)ccc12 (stereo not given) | > 100 | > 100 | > 100 | > 100 | > 100 | > 100 | > 100 | > 100 | > 100 | > 100 | > 100 | > 100 | > 100 | > 100 | > 100 | > 100 | > 100 | > 100 | > 100 | > 100
5 | COc1ccc2c(c1)c1c3c(ccc4ncn2c43)N(CCN(C)C)CCN=1 | 2.31 | 4.24 | 1.73 | 5.2 | 2.41 | 1.26 | 2.4 | 1.09 | 1.1 | 2.85 | 4.07 | 1.5 | 2.83 | 2.89 | 5.39 | 1.62 | 0.705 | 0.76 | 2.67 | 1.3

Source: PubChem BioAssay (NCI)
